Experimental data as given in patent US4732970A, “Antitumor amino acid and peptide derivatives of 1,4-bis(aminoalkyl and hydroxy-aminoalkyl)amino)-5,8-dihydroxyanthraquinones” (priority 1986, dated 1988).
*1 amine or outer side, *2 acyl side, *3 side chain or, on linkers, in order; H or OH if unused. Where a SMILES comes first, the peptide text is derived from it. Bridges are numbered along the chain shown (N, C = ends). Roman numbers before positions name the chains, in order. X1 = O=C1c2c(O)ccc(O)c2C(=O)c2c(NCCN[*:2])ccc(NCCN[*:1])c21

System: lymphocytic leukemia P388
Assay: Lymphocytic Leukemia P388 Test
Type: in vivo, BDF1 mice
Conditions: for Median Survival: BDF1 mice; for T/C × 100 (%): ratio of survival time treated/control; for response vs control in vivo at 0.75 mg/kg / response vs control in vivo at 1.5 mg/kg / response vs control in vivo at 3 mg/kg: Mus musculus, P388, ip, read-out: T/C × 100 (%)
Method in brief: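 BDF1 mice (5–6 per group) were inoculated i.p. with 10^6 P388 cells, then dosed i.p. on days 1, 5 and 9 at various doses. Survival was followed for 60 days, and median survival time and the treated/control (T/C) survival ratio were calculated.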

[1] = dose 0.75 mg/kg intraperitoneally on days 1, 5 and 9
[2] = dose 1.5 mg/kg intraperitoneally on days 1, 5 and 9
[3] = dose 3 mg/kg intraperitoneally on days 1, 5 and 9

SMILES | Median Survival [1] [days] | T/C × 100 (%) [1] [%] | Median Survival [2] [days] | T/C × 100 (%) [2] [%] | Median Survival [3] [days] | T/C × 100 (%) [3] [%] | response vs control in vivo at 0.75 mg/kg [%] | response vs control in vivo at 1.5 mg/kg [%] | response vs control in vivo at 3 mg/kg [%]
Br.Br.C[C@H](N)C(=O)NCC(=O)NCCNc1ccc(NCCNC(=O)CNC(=O)[C@H](C)N)c2c1C(=O)c1c(O)ccc(O)c1C2=O [Example 56, N,N'-[(9,10-Dihydro-5,8-dihydroxy-9,10-dioxo-1,4-anthracenediyl)bis(imino-2,1-ethanediyl)]bis[L-alanyl-glycinamine]dihydrobromide] | 21.0 | 191 | 28.0 | 255 | 32.5 | 295 | – | – | –
O=C(CNC(=O)CNC(=O)OCc1ccccc1)NCCNc1ccc(NCCNC(=O)CNC(=O)CNC(=O)OCc2ccccc2)c2c1C(=O)c1c(O)ccc(O)c1C2=O [Example 57, N,N'-[(9,10-Dihydro-5,8-dihydroxy-9,10-dioxo-1,4-anthracenediyl)bis(imino-2,1-ethanediyl)]bis[N-[(phenylmethoxy)carbonyl]glycyl]glycinamide] | 12.0 | 109 | 14.0 | 127 | 15.0 | 136 | – | – | –
Br.Br.NCC(=O)NCC(=O)NCCNc1ccc(NCCNC(=O)CNC(=O)CN)c2c1C(=O)c1c(O)ccc(O)c1C2=O [Example 58, N,N'-[(9,10-Dihydro-5,8-dihydroxy-9,10-dioxo-1,4-anthracenediyl)bis(imino-2,1-ethanediyl)]bis[glycyl-glycinamide]dihydrobromide] | 22.0 | 200 | 21.5 | 195 | 24.0 | 218 | – | – | –
CC(C)(C)OC(=O)NCC(=O)NCC(=O)NCC(=O)NCCNc1ccc(NCCNC(=O)CNC(=O)CNC(=O)CNC(=O)OC(C)(C)C)c2c1C(=O)c1c(O)ccc(O)c1C2=O [Example 59, N,N'-[(9,10-Dihydro-5,8-dihydroxy-9,10-dioxo-1,4-anthracenediyl)bis(imino-2,1-ethanediyl)]bis[N-[(1,1-dimethylethoxy)carbonyl]glycylglycyl]glycinamide] | 15.0 | 136 | 15.5 | 141 | 18.0 | 164 | – | – | –
NCC(=O)NCC(=O)NCC(=O)NCCNc1ccc(NCCNC(=O)CNC(=O)CNC(=O)CN)c2c1C(=O)c1c(O)ccc(O)c1C2=O.O=C(O)C(F)(F)F.O=C(O)C(F)(F)F [Example 60, N,N'-[(9,10-Dihydro-5,8-dihydroxy-9,10-dioxo-1,4-anthracenediyl)bis(imino-2,1-ethanediyl)]bis[glycylglycylglycinamide]bis(trifluoroacetate)] | 19.5 | 177 | 23.0 | 209 | 22.0 | 200 | – | – | –
Br.Br.CC(C)C[C@H](NC(=O)[C@@H]1CCCN1C(=O)CN)C(=O)NCC(=O)N1CCC[C@H]1C(=O)NCCNc1ccc(NCCNC(=O)[C@@H]2CCCN2C(=O)CNC(=O)[C@H](CC(C)C)NC(=O)[C@@H]2CCCN2C(=O)CN)c2c1C(=O)c1c(O)ccc(O)c1C2=O [Example 62, N,N'-[(9,10-Dihydro-5,8-dihydroxy-9,10-dioxo-1,4-anthracenediyl)bis(imino-2,1-ethanediyl)]bis[glycyl-L-prolyl-L-leucylglycyl-L-prolinamide]dihydrobromide] | 19.0 | 190 | 22.0 | 220 | 24.5 | 245 | – | – | –
Br.Br.C[C@H](NC(=O)[C@@H]1CCCN1C(=O)CNC(=O)CNC(=O)[C@@H]1CCCN1C(=O)CN)C(=O)NCCNc1ccc(NCCNC(=O)[C@H](C)NC(=O)[C@@H]2CCCN2C(=O)CNC(=O)CNC(=O)[C@@H]2CCCN2C(=O)CN)c2c1C(=O)c1c(O)ccc(O)c1C2=O [Example 64, N,N'-[(9,10-Dihydro-5,8-dihydroxy-9,10-dioxo-1,4-anthracenediyl)bis(imino-2,1-ethanediyl)]bis[glycyl-L-prolylglycylglycyl-L-prolyl-L-alaninamide]-dihydrobromide] (I: H-GPGGPA / II: H-GPGGPA; linker I:C-II:C via X1) | 19.5 | – | 20.5 | – | 25.5 | – | 195 | 205 | 255
CC(C)C[C@H](NC(=O)[C@H](C)NC(=O)OC(C)(C)C)C(=O)NCCNc1ccc(NCCNC(=O)[C@H](CC(C)C)NC(=O)[C@H](C)NC(=O)OC(C)(C)C)c2c1C(=O)c1c(O)ccc(O)c1C2=O [Example 65] | 12.0 | 109 | 12.0 | 109 | 13.5 | 123 | – | – | –
CC(C)C[C@H](NC(=O)[C@H](C)N)C(=O)NCCNc1ccc(NCCNC(=O)[C@H](CC(C)C)NC(=O)[C@H](C)N)c2c1C(=O)c1c(O)ccc(O)c1C2=O.O=C(O)C(F)(F)F.O=C(O)C(F)(F)F [Example 66, N,N'-[(9,10-Dihydro-5,8-dihydroxy-9,10-dioxo-1,4-anthracenediyl)bis(imino-2,1-ethanediyl)]bis[L-alanyl-L-leucinamide]bis(trifluoroacetate)] | 19.0 | 173 | 20.0 | 182 | 28.0 | 255 | – | – | –
CC(C)C[C@H](NC(=O)[C@H](C)NC(=O)[C@H](C)NC(=O)OC(C)(C)C)C(=O)NCCNc1ccc(NCCNC(=O)[C@H](CC(C)C)NC(=O)[C@H](C)NC(=O)[C@H](C)NC(=O)OC(C)(C)C)c2c1C(=O)c1c(O)ccc(O)c1C2=O [Example 67, N,N'-[(9,10-Dihydro-5,8-dihydroxy-9,10-dioxo-1,4-anthracenediyl)bis(imino-2,1-ethanediyl)]bis[N-[(1,1-dimethylethoxy)carbonyl]-L-alanyl-L-alanyl-L-leucinamide]] | 15.5 | – | 16.5 | – | 16.0 | – | 155 | 165 | 160
CC(C)C[C@H](NC(=O)[C@H](C)NC(=O)[C@H](C)N)C(=O)NCCNc1ccc(NCCNC(=O)[C@H](CC(C)C)NC(=O)[C@H](C)NC(=O)[C@H](C)N)c2c1C(=O)c1c(O)ccc(O)c1C2=O.O=C(O)C(F)(F)F.O=C(O)C(F)(F)F [Example 68] | 21.0 | 210 | 21.5 | 215 | 22.0 | 220 | – | – | –
CC(C)C[C@H](NC(=O)CNC(=O)CNC(=O)OCc1ccccc1)C(=O)NCCNc1ccc(NCCNC(=O)[C@H](CC(C)C)NC(=O)CNC(=O)CNC(=O)OCc2ccccc2)c2c1C(=O)c1c(O)ccc(O)c1C2=O [Example 69, N,N'-[(9,10-Dihydro-5,8-dihydroxy-9,10-dioxo-1,4-anthracenediyl)bis(imino-2,1-ethanediyl)]bis[N-[(phenylmethoxy)carbonyl]glycylglycyl-L-leucinamide]] | 17.0 | – | 17.0 | – | 18.0 | – | 170 | 170 | 180
Br.Br.CC(C)C[C@H](NC(=O)CNC(=O)CN)C(=O)NCCNc1ccc(NCCNC(=O)[C@H](CC(C)C)NC(=O)CNC(=O)CN)c2c1C(=O)c1c(O)ccc(O)c1C2=O [Example 70, N,N'-[(9,10-Dihydro-5,8-dihydroxy-9,10-dioxo-1,4-anthracenediyl)bis(imino-2,1-ethanediyl)]bis[glycylglycyl-L-leucinamide]dihydrobromide] | 22.0 | 220 | 22.5 | 225 | 44.5 | 445 | – | – | –
C[C@H](N)C(=O)N[C@@H](C)C(=O)N[C@@H](C)C(=O)NCCNc1ccc(NCCNC(=O)[C@H](C)NC(=O)[C@H](C)NC(=O)[C@H](C)N)c2c1C(=O)c1c(O)ccc(O)c1C2=O.O=C(O)C(F)(F)F.O=C(O)C(F)(F)F [Example 73, N,N'-[(9,10-Dihydro-5,8-dihydroxy-9,10-dioxo-1,4-anthracenediyl)bis(imino-2,1-ethanediyl)]bis[L-alanyl-L-alanyl-L-alanine]bis(trifluoroacetate)] | 21.0 | 200 | 24.5 | 233 | 40.0 | 381 | – | – | –
C[C@H](NC(=O)[C@H](CO)NC(=O)OC(C)(C)C)C(=O)NCCNc1ccc(NCCNC(=O)[C@H](C)NC(=O)[C@H](CO)NC(=O)OC(C)(C)C)c2c1C(=O)c1c(O)ccc(O)c1C2=O [Example 75] | 18.5 | 154 | 19.0 | 158 | 21.0 | 175 | – | – | –
